The record followed here is doi:10.1101/2023.02.27.530254, “Large library docking for cannabinoid-1 receptor agonists with reduced side effects” (bioRxiv, 2024).

By EC50 is commonly meant the midpoint of the concentration-response curve. Low values mean higher potency in that assay, high ones lower potency in that assay. What is called Emax is the size of the effect at its maximum, as opposed to the concentration needed.

Data set [1] addresses T1, hCB1 (Homo sapiens, UniProt P21554). Nature of the data set: Cerep HTRF cAMP inhibition assay, hCB1 CHO-K1 cells. The class given is cell-based. The protocol:
The hCB1 CHO-K1 cells are suspended in HBSS buffer (Invitrogen) complemented with 20 mM HEPES (pH 7.4), then distributed in microplates at a density of 5.103 cells/well in the presence of either of the following: HBSS (basal control), the reference agonist at 30 nM (stimulated control) or the test compounds. […] Following 30 min incubation at 37°C, the cells are lysed, and the fluorescence acceptor (D2-labeled cAMP) and fluorescence donor (anti-cAMP antibody labeled with europium cryptate) are added. […] Each measurement was done in triplicate.

Data set [2] deals with T1, hCB1. Nature of the data set: DiscoverX PathHunter β-arrestin-2 recruitment assay. The class given is cell-based. The protocol:
PathHunter cell lines (CHO-K1 lineage expressing hCB1) were expanded from freezer stocks according to standard procedures. Cells were seeded in a total volume of 20 μL into white walled, 384-well microplates and incubated at 37°C for the appropriate time prior to testing. For agonist determination, cells were incubated with sample to induce response. Intermediate dilution of sample stocks was performed to generate 5X sample in assay buffer. 5 μL of 5X sample was added to cells and incubated at 37°C or room temperature for 90 to 180 minutes. Vehicle concentration was 1%. […] Microplates were read following signal generation with a PerkinElmer EnvisionTM instrument for chemiluminescent signal detection. Compound activity was analyzed using CBIS data analysis suite (ChemInnovation, CA).
The data were analyzed in GraphPad Prism 9.1 using “dose–response-stimulation log(agonist) versus response (four parameters)” and data were presented as EC50 or pEC50 ± CIs of one independent experiment in duplicate.
On the technique in general: Recruitment of arrestin is a read-out of receptor activation apart from second messengers.

The target of data set [3] is T2, hCB2 (Homo sapiens, UniProt P34972). Nature of the data set: Cerep cAMP assay. Type of data set: cell-based. For orientation: Changes in cAMP serve as a functional read-out for many G protein-coupled receptors.
Another data set deals with GPR55, GPR18, GPR119. Nature of the data set: PRESTO-Tango GPCRome arrestin-recruitment screen. The class given is cell-based. The note with it: tested at 10 μM. The protocol:
Compound ‘4042 was tested at 10 μM for off-target activity against a panel of 320 non-olfactory GPCRs using PRESTO-Tango GPCRome arrestin-recruitment assay, as described. Receptors with at least three-fold increased relative luminescence over corresponding basal activity are potential positive hits, and were tested in dose response follow-up studies. Compound ‘4042 was further tested at 1 μM for off-target activity at a panel of 45 common GPCR and non-GPCR drug targets. Receptors with at least 50% displaced radioligand are potential positive hits and were tested in dose response follow-up studies. Screening was performed by the National Institutes of Mental Health Psychoactive Drug Screen Program (PDSP)[81].

Data set [4] relates to C56BL/6 mice. Nature of the data set: CFA-induced inflammatory pain model, Hargreaves test. Type of data set: in vivo, mouse. As to conditions: 0.2 mg/kg i.p. The protocol:
(§1) Hindpaw mechanical thresholds were determined with von Frey filaments using the up-down method. […] Each training has three sessions of five min. each.
The CFA model of chronic inflammation was induced as described previously. Briefly, CFA (Sigma) was diluted 1:1 with saline and vortexed for 30 min. When fully suspended, we injected 20 μL of CFA into one hindpaw. Heat thresholds were measured before the injection (baseline) and 3 days after the injection using the Hargreaves test.

The test system of data set [5] is C56BL/6 mice. Nature of the data set: Mechanical thresholds (von Frey), SNI model of neuropathic pain and naive mice. The class given is in vivo, mouse. On the procedure:
as §1
Under isoflurane anesthesia, two of the three branches of the sciatic nerve were ligated and transected distally, leaving the sural nerve intact. Behavior was tested 7 to 14 days after injury.

In data set [6] the test system is C56BL/6 mice. Nature of the data set: Formalin test. The class given is in vivo, mouse. As to conditions: 0.2 mg/kg i.p., 60 min observation. On the procedure: Thirty minutes after an i.p. injection of the compounds, mice received an intraplantar injection of a 20μl solution containing 2% formalin (Acros Organics) and we recorded the time mice spent licking/biting/guarding (nocifensive behaviors) the injected hindpaw over the next 60 min.

In data set [7] the test system is C56BL/6 mice. Nature of the data set: Rotarod test of sedation. The class given is in vivo, mouse. As to conditions: for dose showing motor deficits: rotarod test. On the procedure:
as §1
(The rotarod test checks motor coordination on a turning rod.)

Data set [8] concerns C56BL/6 mice. Nature of the data set: Conditioned place preference. As to conditions: mouse, in vivo. The protocol:
To determine if ‘4042 was inherently rewarding or aversive we used the conditioned place paradigm as described. Briefly, mice were first habituated to the test apparatus, twice, and their preference for each chamber recorded for 30 minutes (Pretest). Two conditioning days followed in which mice received the vehicle control or the compound, and 30 minutes later restricted for 30 minutes in the preferred or non-preferred chamber, respectively. On day 5 (Test day), mice were allowed to roam freely between the 3 chambers of the apparatus and their preference for each chamber recorded for 30 minutes. To calculate the CPP score, we subtracted the time spent in each chamber of the box on the Pretest day from that of the Test day (CPP score = Test - Pretest).

Data set [9] deals with T2, hCB2. Nature of the data set: Radioligand competition binding with [3H]-CP-55,940, HEK293 cells stably expressing human CB2R. As to conditions: Fig. S8, read-out: hCB2 pKi (converted). The arrangement: expressed in transfected cells. On the procedure: The binding affinities of the compounds were obtained by competition binding using membrane preparations from rat brain (source of CB1) or HEK293 cells stably expressing human CB2R receptors and [^3H]-CP-55,940 as the radioligand, as described. The results were analyzed using nonlinear regression to determine the IC50 and Ki values for each ligand (Prism by GraphPad Software, Inc., San Diego, CA). The Ki values are expressed as the mean of two to three experiments each performed in triplicate.

Another data set concerns the target T3, CB1R (Homo sapiens, UniProt P21554, C107A/C139A/C149A/C238A/C355A/C382A/C386A/C415A/C431A/C449A/C98A/R336C).
T3 construct: N-terminal FLAG tag and C-terminal histidine tag was added to human full-length CB1; FLAG (N); histidine tag (C); made in house; host or cells: Spodoptera frugiperda Sf9 (baculovirus)
Nature of the data set: Bimane fluorescence of TM6-labeled minimal cysteine CB1R. The class given is biochemical. As to conditions: 10 μM ligand; apo 459 nm. On the procedure: A minimal cysteine version of CB1R was generated[73] where all the cysteine residues (except C256 and C264) were mutated to alanine. […] Excess label was removed using size exclusion chromatography on a Superdex 200 10/300 Increase column in 20 mM HEPES pH 7.5, 100 mM NaCl and 0.01% MNG/0.001% CHS. Bimane-labeled CB1R at […] was incubated with ligands (10 μM) for one hour at room temperature. Fluorescence data was collected at room temperature in a 150 μL cuvette with a FluorEssence v3.8 software on a Fluorolog instrument (Horiba) in photon-counting mode. Bimane fluorescence was measured by excitation at 370 nm with excitation and emission bandwidth passes of 4 nm. The emission spectra were recorded from 410 to 510 nm with 1 nm increment and 0.1 s integration time.

T1 sequence (P21554 whole entry): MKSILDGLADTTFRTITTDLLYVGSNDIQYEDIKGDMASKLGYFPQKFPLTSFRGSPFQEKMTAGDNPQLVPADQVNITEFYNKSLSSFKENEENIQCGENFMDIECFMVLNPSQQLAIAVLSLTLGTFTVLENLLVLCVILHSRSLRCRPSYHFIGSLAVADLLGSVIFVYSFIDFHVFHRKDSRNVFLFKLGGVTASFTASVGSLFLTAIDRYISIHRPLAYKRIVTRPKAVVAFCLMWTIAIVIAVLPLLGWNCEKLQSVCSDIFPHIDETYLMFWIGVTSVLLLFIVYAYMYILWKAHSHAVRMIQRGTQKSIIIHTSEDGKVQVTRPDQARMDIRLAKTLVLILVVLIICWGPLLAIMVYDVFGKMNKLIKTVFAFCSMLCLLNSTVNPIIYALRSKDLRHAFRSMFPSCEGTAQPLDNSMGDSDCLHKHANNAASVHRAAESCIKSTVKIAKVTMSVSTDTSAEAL
T2 sequence (P34972 whole entry): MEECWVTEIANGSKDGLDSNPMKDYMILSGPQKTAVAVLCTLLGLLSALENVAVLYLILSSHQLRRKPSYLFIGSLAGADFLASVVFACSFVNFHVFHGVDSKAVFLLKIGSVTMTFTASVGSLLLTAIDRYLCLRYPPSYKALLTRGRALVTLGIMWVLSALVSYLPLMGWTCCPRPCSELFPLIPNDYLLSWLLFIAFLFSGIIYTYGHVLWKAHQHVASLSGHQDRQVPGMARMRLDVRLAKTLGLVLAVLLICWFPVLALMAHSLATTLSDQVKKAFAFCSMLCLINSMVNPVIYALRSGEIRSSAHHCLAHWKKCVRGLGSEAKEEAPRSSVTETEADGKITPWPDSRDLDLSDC
T3 sequence (P21554 whole entry C98A/C107A/C139A/C149A/C238A/R336C/C355A/C382A/C386A/C415A/C431A/C449A): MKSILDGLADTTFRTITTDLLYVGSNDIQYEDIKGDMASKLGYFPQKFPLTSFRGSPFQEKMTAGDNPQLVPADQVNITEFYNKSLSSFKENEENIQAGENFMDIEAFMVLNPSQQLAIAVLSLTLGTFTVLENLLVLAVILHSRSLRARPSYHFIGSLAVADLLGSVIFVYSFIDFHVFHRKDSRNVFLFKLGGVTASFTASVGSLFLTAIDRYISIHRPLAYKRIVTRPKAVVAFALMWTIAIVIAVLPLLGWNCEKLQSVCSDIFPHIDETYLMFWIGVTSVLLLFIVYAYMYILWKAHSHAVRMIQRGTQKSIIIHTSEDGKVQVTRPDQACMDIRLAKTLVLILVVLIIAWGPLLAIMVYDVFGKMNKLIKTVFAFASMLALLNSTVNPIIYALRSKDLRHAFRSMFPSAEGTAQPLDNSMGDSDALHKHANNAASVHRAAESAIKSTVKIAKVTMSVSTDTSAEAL

As to `COC(=O)C(C)(NC(=O)c1cc(C)n(-c2cccc(C(F)(F)F)c2)n1)c1cccs1` (centres unmarked) [‘4042], the EC50 on hCB1 [1] was 0.008 nM; at hCB1 [2] (hCB1 DiscoverX ß-arrestin recruitment EC50 [95% CI]), 2.3 nM; on hCB1 [2] (hCB1 DiscoverX ß-arrestin recruitment pEC50 [95% CI]) it was 2 nM; at hCB2 [3], 0.0112 nM. Moreover, the Emax on hCB1 [1] (CHO-K1, read-out: hCB1 Cerep cAMP Emax [95% CI]) is 96%; on hCB1 [2] (read-out: hCB1 DiscoverX ß-arrestin recruitment Emax [95% CI]), 71%; on hCB2 [3] (read-out: hCB2 Cerep cAMP Emax [95% CI]), 72%. Also, in the data set on GPR55, GPR18, GPR119, the “agonist activity at putative cannabinoid receptors” value was “no agonist activity”. In the data set on C56BL/6 mice [4], the “effect on paw withdrawal latency after CFA” value is on record as “analgesic”. Moreover, the “effect on SNI mechanical allodynia” value was “did not counter the mechanical allodynia” in the data set with C56BL/6 mice [5] (0.2 mg/kg i.p.) and “modest anti-allodynic effect” with C56BL/6 mice [5] (intrathecal, up to 100 μg/kg). For the same molecule, in the data set with C56BL/6 mice [5] (0.2 mg/kg i.p.), the “effect on mechanical thresholds of naïve (non-SNI) animals” value is listed as “did not alter the mechanical thresholds”. Besides, the “duration of phase 1 and phase 2 nocifensive behaviors” value in the data set with C56BL/6 mice [6] was “profoundly decreased”. Besides, in the data set on C56BL/6 mice [7], the “dose showing motor deficits” value came to 1.0 mg/kg. In the data set with C56BL/6 mice [8], the conditioned place preference result is reported as “does not induce preference”. Besides, on hCB2 [9], the Ki is 2.51 nM.
With `COC(=O)[C@@](C)(NC(=O)c1cc(C)n(-c2cccc(C(F)(F)F)c2)n1)c1cccs1` [‘1350], the “window between heat-based response and sedation” value with C56BL/6 mice [7] (rotarod) was “only five-fold”. For the same molecule, the “dose showing motor deficits” value in the data set on C56BL/6 mice [7] was determined as 0.5 mg/kg. Moreover, the “bimane spectrum λmax” value on CB1R is 463 nm.
`CCCCCCC(C)(C)c1ccc([C@@H]2C[C@H](O)CC[C@H]2CCCO)c(O)c1` [CP-55,940, reference compound]: the conditioned place preference entry in the data set with C56BL/6 mice [8] is on record as “may actually induce some aversion”.
